{"source": "paper PMC3818835", "about": "“What Goes around Comes around-A Comparative Study of the Influence of Chemical Modifications on the Antimicrobial Properties of Small Cyclic Peptides” (Pharmaceuticals, 2013)", "key": {"[1]": {"test_system": "B. subtilis DSM 347", "format": "cell-based", "details": "DSM 347, 18 h", "experimental": "(§1) The minimal inhibitory concentration (MIC) of the cyclic hexapeptides was tested against Gram-negative E. coli DH5α and Gram-positive B. subtilis DSM 347 using a microdilution technique in 96 well microtiter plates as described previously. Briefly, cells from an overnight culture were inoculated 1:100 in LB medium, grown to mid log phase (OD600 0.4 ± 0.1) and adjusted to 5 × 10^5 cells/well. Final peptide concentrations ranged from 0.05 µM to 100 µM (2-fold dilutions) and were tested in triplicates in at least three independent experiments. The MIC was determined after 18 h of incubation at 37 °C, 180 rpm being the lowest peptide concentration at which no visible bacterial growth can be detected photometrically (A600, Safire Microplate Reader, Tecan, Männedorf, Germany)."}, "[2]": {"test_system": "E. coli DH5α", "format": "cell-based", "details": "18 h", "experimental": "as §1"}, "[3]": {"test_system": "human erythrocytes", "format": "cell-based", "details": "pH 7.4", "experimental": "The lytic effect of selected peptides upon human erythrocytes was determined as described before. Briefly, cells were washed thoroughly in Tris buffer (10 mM Tris, 150 mM NaCl, pH 7.4). Suspensions with 2.5 × 10^8 cells/mL were incubated with peptides at a final concentration of 100 µM for 30 min at 37 °C. After centrifugation, 0.6% NH4OH was added to an aliquot of the supernatant and hemoglobin absorption (A) was measured at 540 nm (Jasco V-550). Whole cell suspensions exposed to NH4OH were used as positive control (A100%) and preparations without peptide served as negative control (A0%), respectively. Data were collected in three independent experiments."}, "[4]": {"assay": "Hydrophobicity: retention time tR by reversed phase HPLC", "format": "physicochemical", "details": "chromatographic, RP-HPLC ProntoSil 300-5-C18-H (250 × 4.6 mm, 5 µm); peptide 1 mg/mL in phase A (0.1% TFA in water); B 0.1% TFA in 80% acetonitrile; linear gradient 5%–95% B over 40 min at 22 °C; used as a measure of hydrophobicity", "experimental": "The retention time tR of the cyclic hexapeptides was determined by HPLC on a Jasco LC-2000Plus using a ProntoSil 300-5-C18-H column (250 × 4.6 mm, 5 µm) (Bischoff Chromatography). Peptide concentration was 1 mg/mL in mobile phase A (0.1% TFA in deionized water), mobile phase B consisted of 0.1% TFA in 80% acetonitrile in deionized water. For chromatographic analyses a linear gradient of 5%–95% phase B over 40 min at 22 °C was applied.\nTo investigate the influence of fluorescent label modification and amino acid substitution on the hydrophobicity/amphipathicity of the cyclic hexapeptide derivatives, we determined the retention time tR by reversed phase HPLC (Figure 2). The method monitors the retention of compounds by the hydrophobic HPLC stationary phase. Differences in tR reflect differences in the effective hydrophobicity of the molecule which is related to the intrinsic hydrophobicity of the individual residues and their ability to form hydrophobic domains for interaction with the HPLC matrix. At the same time, hydrophilic residues will locate at the opposite side of the molecule. Reduction in the size or positioning of cationic residues next to the hydrophobic molecular surface area would reduce amphipathicity. tR-measurements have successfully been applied to characterize amphipathic helices, β-structured peptides and different sets of our small cyclic R-, W-rich peptides."}}, "note": "Peptide text beside a SMILES is read from it. * marks the point of attachment. 6FAM = O=C1OC2(c3ccc(O)cc3Oc3cc(O)ccc32)c2cc(C(=O)*)ccc21; X2 = O=c1cc(C*)c2cc(Br)c(O)cc2o1", "data": [{"smiles": "N=C(N)NCCC[C@@H]1NC(=O)[C@H](CCCCN)NC(=O)[C@H](Cc2c[nH]c3ccccc23)NC(=O)[C@H](CSCc2cc(=O)oc3cc(O)c(Br)cc23)NC(=O)[C@H](Cc2c[nH]c3ccccc23)NC(=O)[C@H](CCCCN)NC1=O", "note": "[cR2[S-Cu]] (cyclo(KRKWC(X2)W))", "values": [{"measurement": "MIC B. subtilis DSM 347", "setting": "[1]", "result": 25, "unit": "µM"}, {"measurement": "MIC E. coli DH5α", "setting": "[2]", "result": 50, "unit": "µM"}, {"measurement": "Hemolysis at 100 µM", "setting": "[3]", "result": 5, "unit": "%"}, {"measurement": "Retention Time tR", "setting": "[4]", "result": 17.49, "unit": "min"}]}, {"smiles": "NCCCC[C@@H]1NC(=O)[C@H](CCCCN)NC(=O)[C@H](Cc2c[nH]c3ccccc23)NC(=O)[C@H](Cc2ccccc2)NC(=O)[C@H](Cc2c[nH]c3ccccc23)NC(=O)[C@H](CCCCN)NC1=O", "note": "[cKKK] (cyclo(KKKWFW))", "values": [{"measurement": "MIC B. subtilis DSM 347", "setting": "[1]", "result": 50, "unit": "µM"}, {"measurement": "MIC E. coli DH5α", "setting": "[2]", "result": 100, "unit": "µM"}, {"measurement": "Hemolysis at 100 µM", "setting": "[3]", "result": 8, "unit": "%"}, {"measurement": "Retention Time tR", "setting": "[4]", "result": 17.70, "unit": "min"}]}, {"smiles": "N=C(N)NCCC[C@@H]1NC(=O)[C@H](CCCCN)NC(=O)[C@H](CCCCN)NC(=O)[C@H](Cc2c[nH]c3ccccc23)NC(=O)[C@H](Cc2ccccc2)NC(=O)[C@H](Cc2c[nH]c3ccccc23)NC1=O", "note": "[cKKR] (cyclo(KKRWFW))", "values": [{"measurement": "MIC B. subtilis DSM 347", "setting": "[1]", "result": 25, "unit": "µM"}, {"measurement": "MIC E. coli DH5α", "setting": "[2]", "result": 100, "unit": "µM"}, {"measurement": "Hemolysis at 100 µM", "setting": "[3]", "result": 3, "unit": "%"}, {"measurement": "Retention Time tR", "setting": "[4]", "result": 17.86, "unit": "min"}]}, {"smiles": "N=C(N)NCCC[C@@H]1NC(=O)[C@H](CCCNC(=N)N)NC(=O)[C@H](CCCCNC(=O)c2ccc3c(c2)C2(OC3=O)c3ccc(O)cc3Oc3cc(O)ccc32)NC(=O)[C@H](Cc2c[nH]c3ccccc23)NC(=O)[C@H](Cc2c[nH]c3ccccc23)NC(=O)[C@H](CCCNC(=N)N)NC1=O", "note": "[cW2[Fluos]] (cyclo(RRRWWK(6FAM)))", "values": [{"measurement": "MIC B. subtilis DSM 347", "setting": "[1]", "result": ">100", "unit": "µM"}, {"measurement": "MIC E. coli DH5α", "setting": "[2]", "result": ">100", "unit": "µM"}, {"measurement": "Hemolysis at 100 µM", "setting": "[3]", "result": 9, "unit": "%"}, {"measurement": "Retention Time tR", "setting": "[4]", "result": 19.28, "unit": "min"}]}, {"smiles": "N=C(N)NCCC[C@@H]1NC(=O)[C@H](CCCCN)NC(=O)[C@H](Cc2c[nH]c3ccccc23)NC(=O)[C@H](Cc2ccccc2)NC(=O)[C@H](Cc2c[nH]c3ccccc23)NC(=O)[C@H](CCCCN)NC1=O", "note": "[cKRK] (cyclo(KRKWFW))", "values": [{"measurement": "MIC B. subtilis DSM 347", "setting": "[1]", "result": 25, "unit": "µM"}, {"measurement": "MIC E. coli DH5α", "setting": "[2]", "result": 12, "unit": "µM"}, {"measurement": "Hemolysis at 100 µM", "setting": "[3]", "result": 2, "unit": "%"}, {"measurement": "Retention Time tR", "setting": "[4]", "result": 17.27, "unit": "min"}]}, {"smiles": "N=C(N)NCCC[C@@H]1NC(=O)[C@H](CCCCNC(=O)c2ccc3c(c2)C2(OC3=O)c3ccc(O)cc3Oc3cc(O)ccc32)NC(=O)[C@H](Cc2c[nH]c3ccccc23)NC(=O)[C@H](Cc2c[nH]c3ccccc23)NC(=O)[C@H](Cc2c[nH]c3ccccc23)NC(=O)[C@H](CCCNC(=N)N)NC1=O", "note": "[cW3[Fluos]] (cyclo(RRWWWK(6FAM)))", "values": [{"measurement": "MIC B. subtilis DSM 347", "setting": "[1]", "result": ">100", "unit": "µM"}, {"measurement": "MIC E. coli DH5α", "setting": "[2]", "result": ">100", "unit": "µM"}, {"measurement": "Hemolysis at 100 µM", "setting": "[3]", "result": 2, "unit": "%"}, {"measurement": "Retention Time tR", "setting": "[4]", "result": 22.08, "unit": "min"}]}, {"smiles": "N=C(N)NCCC[C@@H]1NC(=O)[C@H](Cc2c[nH]c3ccccc23)NC(=O)[C@H](Cc2ccccc2)NC(=O)[C@H](Cc2c[nH]c3ccccc23)NC(=O)[C@H](CCCCN)NC(=O)[C@H](CCCCN)NC1=O", "note": "[cRKK] (cyclo(RKKWFW))", "values": [{"measurement": "MIC B. subtilis DSM 347", "setting": "[1]", "result": 25, "unit": "µM"}, {"measurement": "MIC E. coli DH5α", "setting": "[2]", "result": 50, "unit": "µM"}, {"measurement": "Hemolysis at 100 µM", "setting": "[3]", "result": 56, "unit": "%"}, {"measurement": "Retention Time tR", "setting": "[4]", "result": 18.38, "unit": "min"}]}, {"smiles": "N=C(N)NCCC[C@@H]1NC(=O)[C@H](CCCCN)NC(=O)[C@H](CCCNC(=N)N)NC(=O)[C@H](Cc2c[nH]c3ccccc23)NC(=O)[C@H](Cc2ccccc2)NC(=O)[C@H](Cc2c[nH]c3ccccc23)NC1=O", "note": "[cRKR] (cyclo(RKRWFW))", "values": [{"measurement": "MIC B. subtilis DSM 347", "setting": "[1]", "result": 12, "unit": "µM"}, {"measurement": "MIC E. coli DH5α", "setting": "[2]", "result": 50, "unit": "µM"}, {"measurement": "Hemolysis at 100 µM", "setting": "[3]", "result": 4, "unit": "%"}, {"measurement": "Retention Time tR", "setting": "[4]", "result": 18.60, "unit": "min"}]}]}
